# US9029337B2, “Modulation of factor 7 expression” (Isis Pharmaceuticals, Inc., priority 2007, dated 2015)
# Strand notation (5' to 3'): a small letter for the sugar, then the base; units joined by * are phosphorothioate-linked, units joined directly phosphodiester-linked; [ ] holds rarer units or linkages, { } end groups; capitals alone tell only the bases. e = 2'-O-(2-methoxyethyl) (MOE); [5mC] = 5-methylcytosine; d = 2'-deoxy (DNA)
# System: human Factor 7 mRNA
# Test: Antisense inhibition of human Factor 7 mRNA in HepB3 cells, 50 nM antisense oligonucleotide, lipofectin
# Assay type: cell-based
# Conditions: Table 1, 50 nM, lipofectin, approximately 24 hours, relative to untreated control cells
# Method: Antisense oligonucleotides targeted to a Factor 7 nucleic acid were tested for their effects on Factor 7 mRNA in vitro. Cultured HepB3 cells at a density of 4,000 cells per well were transfected using lipofectin reagent with 50 nM antisense oligonucleotide. After a treatment period of approximately 24 hours, RNA was isolated from the cells and Factor 7 mRNA levels were measured by real-time RT-PCR, as described herein. Factor 7 mRNA levels were adjusted according to total RNA content as measured by RIBOGREEN®. Results are presented as percent inhibition of Factor 7, relative to untreated control cells.
# (§1) Antisense oligonucleotides targeted to a Factor 7 nucleic acid were designed and tested for their effects on Factor 7 mRNA in vitro. Certain antisense oligonucleotides from Table 3 were also retested for their effects on Factor 7 mRNA in vitro. Cultured HepB3 cells at a density of 4,000 cells per well were transfected using lipofectin reagent with 50 nM antisense oligonucleotide. After a treatment period of approximately 24 hours, RNA was isolated from the cells and Factor 7 mRNA levels were measured by real-time RT-PCR, as described herein. Human Factor 7 primer probe set RTS 2927 was used to measure mRNA levels. Factor 7 mRNA levels were adjusted according to total RNA content as measured by RIBOGREEN®. Results are presented as percent inhibition of Factor 7, relative to untreated control.
# as §1, with “tested” for “tested for their effects on Factor 7 mRNA in vitro. Certain antisense oligonucleotides from Table 3 were also retested”
# These gapmers were designed by creating gapmers shifted slightly upstream and downstream (i.e. “microwalk”) of the original gapmers from Table 7. Gapmers were also created with various motifs, e.g. 5-10-5 MOE, 3-14-3 MOE, and 2-13-5 MOE. These gapmers were tested in vitro. Cultured HepB3 cells at a density of 4,000 cells per well were transfected using lipofectin reagent with 50 nM antisense oligonucleotide. After a treatment period of approximately 24 hours, RNA was isolated from the cells and Factor 7 mRNA levels were measured by real-time RT-PCR. Factor 7 mRNA levels were adjusted according to total RNA content, as measured by RIBOGREEN®. Results are presented as percent inhibition of Factor 7, relative to untreated control cells.
row,Substance,% Inhibition [%]
1,407894 (antisense eG*eT*eT*e[5mC]*e[5mC]*dG*dG*d[5mC]*d[5mC]*d[5mC]*dT*d[5mC]*dG*dA*dA*eG*eG*e[5mC]*eA*eG) [compound 407894],77
2,407895 (antisense e[5mC]*eA*e[5mC]*eA*e[5mC]*dA*dG*dA*dT*d[5mC]*dA*dG*d[5mC]*dT*dG*eG*eT*e[5mC]*eA*eT) [compound 407895],72
3,407896 (antisense e[5mC]*eG*eT*eG*eT*dG*dG*dT*d[5mC]*dA*d[5mC]*dT*dG*d[5mC]*dA*eG*eT*eA*e[5mC]*eT) [compound 407896],73
4,407897 (antisense eG*e[5mC]*eT*eT*eG*dG*dT*dG*d[5mC]*d[5mC]*d[5mC]*dG*dT*dG*dT*eG*eG*eT*e[5mC]*eA) [compound 407897],77
5,407898 (antisense e[5mC]*e[5mC]*eA*eG*e[5mC]*dA*dG*dA*dG*dA*dG*dT*dA*d[5mC]*d[5mC]*e[5mC]*e[5mC]*eT*e[5mC]*eG) [compound 407898],49
6,407901 (antisense eT*eG*eG*eT*eG*dT*dT*dG*dA*dT*d[5mC]*dA*dG*dG*dG*eT*e[5mC]*e[5mC]*e[5mC]*e[5mC]) [compound 407901],89
7,407902 (antisense e[5mC]*eA*e[5mC]*e[5mC]*e[5mC]*dA*dG*dA*dT*dG*dG*dT*dG*dT*dT*eG*eA*eT*e[5mC]*eA) [compound 407902],86
8,407903 (antisense e[5mC]*e[5mC]*eG*e[5mC]*eG*dG*dA*dG*dA*d[5mC]*d[5mC]*dA*d[5mC]*d[5mC]*d[5mC]*eA*eG*eA*eT*eG) [compound 407903],98
9,407904 (antisense eG*eA*eA*eA*e[5mC]*dA*dG*dT*dG*dG*dG*d[5mC]*d[5mC]*dG*d[5mC]*eG*eG*eA*eG*eA) [compound 407904],83
10,407905 (antisense e[5mC]*e[5mC]*eA*eG*eT*dT*d[5mC]*dT*dT*dG*dA*dT*dT*dT*dT*eG*eT*e[5mC]*eG*eA) [compound 407905],40
11,407906 (antisense eA*e[5mC]*e[5mC]*eA*e[5mC]*dG*dG*dG*d[5mC]*dT*dG*dG*dT*dG*d[5mC]*eA*eG*eG*e[5mC]*eG) [compound 407906],4
12,407907 (antisense eA*eA*eT*eG*eA*dG*dA*dA*dG*d[5mC]*dG*d[5mC]*dA*d[5mC]*dG*eA*eA*eG*eG*e[5mC]) [compound 407907],35
13,407908 (antisense e[5mC]*e[5mC]*e[5mC]*e[5mC]*eA*dG*d[5mC]*d[5mC]*dG*d[5mC]*dT*dG*dA*d[5mC]*d[5mC]*eA*eA*eT*eG*eA) [compound 407908],47
14,407909 (antisense e[5mC]*e[5mC]*eA*eT*e[5mC]*d[5mC]*dG*dA*dG*dT*dA*dG*d[5mC]*d[5mC]*dG*eG*e[5mC]*eA*e[5mC]*eA) [compound 407909],77
15,407911 (antisense e[5mC]*e[5mC]*e[5mC]*e[5mC]*eT*dT*dG*d[5mC]*dA*dG*dG*dA*dG*dT*d[5mC]*e[5mC]*eT*eT*eG*e[5mC]) [compound 407911],74
16,407912 (antisense e[5mC]*e[5mC]*e[5mC]*eG*eG*dT*dA*dG*dT*dG*dG*dG*dT*dG*dG*e[5mC]*eA*eT*eG*eT) [compound 407912],46
17,407913 (antisense eG*eA*eT*eG*e[5mC]*d[5mC]*d[5mC]*dG*dT*d[5mC]*dA*dG*dG*dT*dA*e[5mC]*e[5mC]*eA*e[5mC]*eG) [compound 407913],74
18,407914 (antisense e[5mC]*e[5mC]*eA*eG*e[5mC]*dT*dG*dA*d[5mC]*dG*dA*dT*dG*d[5mC]*d[5mC]*e[5mC]*eG*eT*e[5mC]*eA) [compound 407914],82
19,407915 (antisense eG*eT*eT*eG*e[5mC]*dG*d[5mC]*dA*dG*d[5mC]*d[5mC]*d[5mC]*dT*dG*dG*e[5mC]*e[5mC]*e[5mC]*e[5mC]*eA) [compound 407915],83
20,407916 (antisense eG*eT*eG*eG*e[5mC]*d[5mC]*d[5mC]*dA*d[5mC]*dG*dG*dT*dT*dG*d[5mC]*eG*e[5mC]*eA*eG*e[5mC]) [compound 407916],53
21,407917 (antisense eA*e[5mC]*eA*e[5mC]*e[5mC]*d[5mC]*d[5mC]*dA*dA*dA*dG*dT*dG*dG*d[5mC]*e[5mC]*e[5mC]*eA*e[5mC]*eG) [compound 407917],70

row,Substance,% Inhibition [%]
1,407918 (antisense e[5mC]*e[5mC]*eT*eG*eG*dT*dG*dT*dA*d[5mC]*dA*d[5mC]*d[5mC]*d[5mC]*d[5mC]*eA*eA*eA*eG*eT) [compound 407918],72
2,407919 (antisense eT*e[5mC]*eG*eA*eT*dG*dT*dA*d[5mC]*dT*dG*dG*dG*dA*dG*eA*e[5mC]*e[5mC]*e[5mC]*eT) [compound 407919],84
3,407920 (antisense eT*eG*eA*eG*e[5mC]*dG*d[5mC]*dA*dT*dG*dA*dG*d[5mC]*dT*dT*eT*eT*eG*e[5mC]*eA) [compound 407920],65
4,407921 (antisense e[5mC]*e[5mC]*eA*e[5mC]*eA*dG*dG*d[5mC]*d[5mC]*dA*dG*dG*dG*d[5mC]*dT*eG*e[5mC]*eT*eG*eG) [compound 407921],65
5,407922 (antisense eT*e[5mC]*eG*eA*e[5mC]*dG*d[5mC]*dA*dG*d[5mC]*d[5mC]*dT*dT*dG*dG*e[5mC]*eT*eT*eT*e[5mC]) [compound 407922],82
6,407923 (antisense e[5mC]*eA*eG*eG*eA*d[5mC]*dA*dG*dT*dT*d[5mC]*dG*dA*d[5mC]*dG*e[5mC]*eA*eG*e[5mC]*e[5mC]) [compound 407923],76
7,407924 (antisense eG*eA*eT*eT*eT*dG*dG*dT*dG*d[5mC]*d[5mC]*dA*dG*dG*dA*e[5mC]*eA*eG*eT*eT) [compound 407924],68
8,407925 (antisense eG*eA*eA*eT*eA*dT*dA*dT*dG*dG*dG*dA*dT*dT*dT*eG*eG*eT*eG*e[5mC]) [compound 407925],64
9,407926 (antisense e[5mC]*e[5mC]*eA*eG*eG*dA*d[5mC]*dA*dA*d[5mC]*d[5mC]*dT*dT*dG*dG*e[5mC]*eA*e[5mC]*eT*e[5mC]) [compound 407926],79
10,407927 (antisense eA*eG*eG*eT*eA*dA*dG*dG*dA*dG*dG*d[5mC]*dT*d[5mC]*dA*eG*e[5mC]*eT*eG*eG) [compound 407927],55
11,407928 (antisense e[5mC]*eT*eT*eG*eG*d[5mC]*dT*dG*dA*dA*dG*dG*dG*dA*dG*eG*eT*eA*eA*eG) [compound 407928],55
12,407929 (antisense eG*e[5mC]*eA*eG*eA*dG*d[5mC]*dA*dG*d[5mC]*dA*dG*d[5mC]*d[5mC]*dT*eG*eA*eG*eG*e[5mC]) [compound 407929],53
13,407930 (antisense e[5mC]*eA*eA*eT*eG*dA*dA*dG*dG*d[5mC]*dA*dG*dA*dG*d[5mC]*eA*eG*e[5mC]*eA*eG) [compound 407930],70
14,407931 (antisense e[5mC]*eT*eT*e[5mC]*eA*dG*dA*dG*dG*dA*d[5mC]*dA*dG*d[5mC]*dA*e[5mC]*eA*e[5mC]*eA*eT) [compound 407931],56
15,407932 (antisense eG*eA*eA*e[5mC]*e[5mC]*dA*dG*dA*dA*dA*dA*dG*dT*dG*dA*eG*eA*eG*e[5mC]*eT) [compound 407932],55
16,407933 (antisense eT*eG*eA*eT*eA*dA*dT*dG*dG*dA*dT*dA*dA*dG*dA*eA*e[5mC]*e[5mC]*eA*eG) [compound 407933],58
17,407934 (antisense e[5mC]*eT*eG*eA*eA*dG*dT*dG*dA*dA*dG*dA*dT*dG*dA*eT*eA*eA*eT*eG) [compound 407934],45
18,407937 (antisense eG*eA*eA*eG*eG*dG*dA*dG*dA*dA*dA*dT*dA*d[5mC]*dA*eT*eT*eT*eG*eG) [compound 407937],59
19,407938 (antisense e[5mC]*eA*e[5mC]*e[5mC]*e[5mC]*dA*dG*d[5mC]*dG*dA*dA*dG*dG*dG*dA*eG*eA*eA*eA*eT) [compound 407938],60
20,407940 (antisense eT*eG*eT*eG*eA*dA*dG*d[5mC]*dT*dG*dG*dG*dA*dA*dG*e[5mC]*eA*eG*eG*eT) [compound 407940],62
